Legend:
[1] = Cytotoxicity, residual cell viability after 24 hours; format: cell-based; conditions: 10 μM
[2] = molecular target: ICRAC (Homo sapiens, UniProt Q96D31); conditions: read-out: IC50 (ICRAC inhibition); cited from earlier work
[3] = tested on: metabotropic glutamate, muscarinic acetylcholine and GABA B receptors, GABA A, AMPA and NMDA receptors, tetrodotoxin-sensitive Na+ channels, N- and P/Q-type …; conditions: cited from earlier work
[4] = tested on: tBHQ-induced calcium influx into Hek cells (SOCE); assay: Store-operated calcium entry (SOCE) by Fura-2 Ca2+ measurements in Hek cells; format: cell-based, Human
[5] = tested on: T cell cytokine production; conditions: T cells; cited from earlier work
[6] = tested on: STIM1 clustering; conditions: vascular smooth muscle cells; cited from earlier work
[7] = tested on: vascular smooth muscle cells; conditions: cited from earlier work
[8] = molecular target: endogenous TRPC1/5 (Homo sapiens, UniProt P48995+Q9UL62); conditions: cited from earlier work
Sequence of endogenous TRPC1/5 (P48995 whole entry, one chain of several): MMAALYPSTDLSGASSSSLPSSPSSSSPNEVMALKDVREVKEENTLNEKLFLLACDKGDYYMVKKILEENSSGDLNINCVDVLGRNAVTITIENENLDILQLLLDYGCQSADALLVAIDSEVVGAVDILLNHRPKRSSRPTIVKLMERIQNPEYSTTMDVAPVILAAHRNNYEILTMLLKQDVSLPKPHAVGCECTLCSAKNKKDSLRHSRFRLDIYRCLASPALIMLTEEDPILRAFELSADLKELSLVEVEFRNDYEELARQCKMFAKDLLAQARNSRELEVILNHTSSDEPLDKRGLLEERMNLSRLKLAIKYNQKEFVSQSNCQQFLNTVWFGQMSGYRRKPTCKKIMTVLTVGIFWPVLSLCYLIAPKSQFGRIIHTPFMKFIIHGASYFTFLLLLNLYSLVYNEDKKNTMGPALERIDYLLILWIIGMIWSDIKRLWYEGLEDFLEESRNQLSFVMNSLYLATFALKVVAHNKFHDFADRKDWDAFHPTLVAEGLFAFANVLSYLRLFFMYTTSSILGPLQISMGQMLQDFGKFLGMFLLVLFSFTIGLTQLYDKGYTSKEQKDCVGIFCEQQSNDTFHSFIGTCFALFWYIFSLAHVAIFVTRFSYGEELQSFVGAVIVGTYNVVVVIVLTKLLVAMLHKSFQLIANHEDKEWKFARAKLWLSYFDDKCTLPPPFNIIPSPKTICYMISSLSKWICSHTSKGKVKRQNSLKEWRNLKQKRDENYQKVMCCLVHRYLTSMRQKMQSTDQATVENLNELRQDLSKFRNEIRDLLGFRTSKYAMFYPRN

[9] = molecular target: T1, overexpressed TRPC5 channels (Homo sapiens, UniProt Q9UL62); conditions: cited from earlier work
T1 sequence (Q9UL62 1-973): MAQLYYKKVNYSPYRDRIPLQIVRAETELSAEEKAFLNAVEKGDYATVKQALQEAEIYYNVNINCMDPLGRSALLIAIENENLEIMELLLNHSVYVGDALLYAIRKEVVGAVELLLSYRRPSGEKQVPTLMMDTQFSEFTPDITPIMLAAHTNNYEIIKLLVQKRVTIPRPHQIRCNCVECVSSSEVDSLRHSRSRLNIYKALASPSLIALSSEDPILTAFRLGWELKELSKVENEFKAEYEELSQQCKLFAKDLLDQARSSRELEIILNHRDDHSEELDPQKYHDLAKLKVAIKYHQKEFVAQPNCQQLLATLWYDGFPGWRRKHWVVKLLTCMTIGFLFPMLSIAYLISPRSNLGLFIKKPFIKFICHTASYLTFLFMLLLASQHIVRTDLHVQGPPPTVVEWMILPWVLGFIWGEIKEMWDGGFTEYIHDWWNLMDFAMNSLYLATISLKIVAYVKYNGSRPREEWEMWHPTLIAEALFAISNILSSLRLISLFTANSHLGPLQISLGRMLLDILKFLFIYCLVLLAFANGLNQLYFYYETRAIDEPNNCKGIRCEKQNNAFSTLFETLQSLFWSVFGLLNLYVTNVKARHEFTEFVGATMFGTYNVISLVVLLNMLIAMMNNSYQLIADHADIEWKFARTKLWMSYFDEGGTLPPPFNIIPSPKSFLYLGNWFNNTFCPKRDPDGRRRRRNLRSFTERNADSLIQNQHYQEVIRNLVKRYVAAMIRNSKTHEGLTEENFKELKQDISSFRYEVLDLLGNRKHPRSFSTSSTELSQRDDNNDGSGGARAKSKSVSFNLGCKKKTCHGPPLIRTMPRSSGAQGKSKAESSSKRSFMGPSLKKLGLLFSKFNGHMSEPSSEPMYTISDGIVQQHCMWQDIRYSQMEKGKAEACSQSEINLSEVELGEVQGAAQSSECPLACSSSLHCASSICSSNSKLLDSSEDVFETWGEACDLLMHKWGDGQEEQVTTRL

Sequence of ICRAC (Q96D31 whole entry): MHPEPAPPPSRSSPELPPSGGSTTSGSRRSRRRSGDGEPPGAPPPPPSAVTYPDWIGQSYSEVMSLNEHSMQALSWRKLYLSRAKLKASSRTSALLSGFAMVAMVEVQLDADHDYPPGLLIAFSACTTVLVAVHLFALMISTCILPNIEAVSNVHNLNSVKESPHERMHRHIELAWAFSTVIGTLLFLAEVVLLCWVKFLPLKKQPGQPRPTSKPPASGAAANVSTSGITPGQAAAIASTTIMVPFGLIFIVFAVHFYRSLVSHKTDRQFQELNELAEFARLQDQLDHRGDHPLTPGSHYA

COc1ccc(OC)c(-c2ccc(NC(=O)c3ccncc3F)cc2)c1 [Synta66, 3-fluoropyridine-4-carboxylic acid (2′,5′-dimethoxybiphenyl-4-yl)amide]
residual cell viability [1]: 76%
IC50 [2]: ~1000 nM
effect on receptors and ion channels (mGlu, muscarinic, GABA B, GABA A, AMPA, NMDA, TTX-sensitive Na+, N- and P/Q-type Ca2+ channels) [3]: does not affect
IC50 in inhibiting SOCE activity [4]: in the nanomolar range
production of IFN-gamma, IL-2 and IL-17 [5]: inhibits the production
production of IL-8 [5]: but not of IL-8
interference with STIM1 clustering [6]: does not interfere with STIM1 clustering
IC50 [7]: ~30 nM
inhibition of endogenous TRPC1/5 [8]: does not inhibit
inhibition of overexpressed TRPC5 channels [9]: does not inhibit

From patent publication US12655113B2, “Biphenyl compounds as SOCE modulators, compositions and uses thereof” (Università degli Studi del Piemonte Orientale “Amedeo …, priority 2020, dated 2026)
